Data as given in patent publication US10323043B2, “Derivatives of macrocyclic N-aryl-tricyclopyrimidine-2-amine polyethers as inhibitors of FTL3 and JAK” (PIERRE FABRE MEDICAMENT, priority 2014, dated 2019).

Experiments:
[1] = target: T1, FLT3-ITD (Homo sapiens, UniProt P36888); experiment: LanthaScreen TR-FRET binding test, FLT3-ITD; details: FLT3-ITD 15 nM, kinase tracer 236 3 nM, 25° C., 1 hour; read-out: Inhibition (IC50) of FLT3-ITD enzyme
T1 construct: FLT3-ITD (#0778-0000-1) and FLT3^D835Y (#14-610) proteins were purchased from ProQinase and Merck Millipore, respectively; fused on or other part: GST tag, inferred from detection with the anti-GST europium antibody
T1 sequence (P36888 1-993): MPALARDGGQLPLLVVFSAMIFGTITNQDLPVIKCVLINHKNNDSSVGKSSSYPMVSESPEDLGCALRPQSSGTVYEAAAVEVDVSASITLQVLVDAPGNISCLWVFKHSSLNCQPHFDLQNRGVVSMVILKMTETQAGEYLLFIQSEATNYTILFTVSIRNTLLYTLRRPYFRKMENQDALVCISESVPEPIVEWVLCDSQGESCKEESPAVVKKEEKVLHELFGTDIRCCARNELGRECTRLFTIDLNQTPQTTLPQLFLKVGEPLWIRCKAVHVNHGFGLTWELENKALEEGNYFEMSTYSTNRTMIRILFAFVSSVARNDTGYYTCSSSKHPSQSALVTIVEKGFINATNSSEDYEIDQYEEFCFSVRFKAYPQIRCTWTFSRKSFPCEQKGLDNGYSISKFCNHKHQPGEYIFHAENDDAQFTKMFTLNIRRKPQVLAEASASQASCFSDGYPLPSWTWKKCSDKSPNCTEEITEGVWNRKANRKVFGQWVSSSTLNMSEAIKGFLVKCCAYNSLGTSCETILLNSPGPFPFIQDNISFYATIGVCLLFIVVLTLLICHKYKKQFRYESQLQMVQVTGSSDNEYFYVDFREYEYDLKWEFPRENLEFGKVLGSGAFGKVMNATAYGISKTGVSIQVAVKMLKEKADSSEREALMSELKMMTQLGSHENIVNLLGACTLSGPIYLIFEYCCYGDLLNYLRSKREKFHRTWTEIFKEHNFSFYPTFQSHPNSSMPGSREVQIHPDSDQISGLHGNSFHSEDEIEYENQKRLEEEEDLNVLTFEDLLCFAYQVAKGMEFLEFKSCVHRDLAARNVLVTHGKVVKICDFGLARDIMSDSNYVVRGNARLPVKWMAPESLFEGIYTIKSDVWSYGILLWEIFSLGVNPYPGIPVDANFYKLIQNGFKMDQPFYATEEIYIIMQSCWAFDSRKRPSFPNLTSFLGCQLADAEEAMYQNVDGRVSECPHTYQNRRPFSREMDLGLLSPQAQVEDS
Procedure: (§1) FLT3 (#PV3182), JAK2 (#PV4210) and JAK3 (#PV3855) recombinant enzymes were purchased from Life Technologies. FLT3-ITD (#0778-0000-1) and FLT3^D835Y (#14-610) proteins were purchased from ProQinase and Merck Millipore, respectively. All the tests were carried out in 384-well plates. The principle of these binding tests is based on the LanthaScreen® TR-FRET methodology from Life Technologies.
The reaction mixture (15 μL total volume) contains the following compounds: 15 nM FLT3, FLT3-ITD or FLT3^D835Y, 3 nM kinase tracer 236 (Life Technologies, #PV5592) and 6 nM LanthaScreen® anti-GST antibody coupled to a europium chelate (Life Technologies, #PV5594) for FLT3-ITD and FLT3^D835Y or 6 nM LanthaScreen® anti-His antibody coupled to a europium chelate (Life Technologies, #PV5596) for FLT3.
(§2) The compounds are evaluated at 8 different concentrations prepared by making dilutions from a starting 10 mM stock solution in dimethylsulfoxide (DMSO) (Sigma, #D8418). The final DMSO concentration in the test is 1%. The reaction is carried out at 25° C. for 1 hour and detected on the EnVision® reader (Perkin Elmer) according to the recommendations of the supplier, Life Technologies.
(§3) The results are presented (Table 1) as the concentration values of the compound at which 50% of the kinase activity is inhibited, IC50 (μM), generated using the PRISM software (GraphPad).

[2] = target: T2, JAK2 (Homo sapiens, UniProt O60674); experiment: LanthaScreen TR-FRET binding test, JAK2; details: recombinant JAK2 15 nM, kinase tracer 236 150 nM, 25° C., 1 hour; read-out: Inhibition (IC50) of JAK2 enzyme
T2 construct: purchased Life Technologies PV4210
T2 sequence (O60674 whole entry): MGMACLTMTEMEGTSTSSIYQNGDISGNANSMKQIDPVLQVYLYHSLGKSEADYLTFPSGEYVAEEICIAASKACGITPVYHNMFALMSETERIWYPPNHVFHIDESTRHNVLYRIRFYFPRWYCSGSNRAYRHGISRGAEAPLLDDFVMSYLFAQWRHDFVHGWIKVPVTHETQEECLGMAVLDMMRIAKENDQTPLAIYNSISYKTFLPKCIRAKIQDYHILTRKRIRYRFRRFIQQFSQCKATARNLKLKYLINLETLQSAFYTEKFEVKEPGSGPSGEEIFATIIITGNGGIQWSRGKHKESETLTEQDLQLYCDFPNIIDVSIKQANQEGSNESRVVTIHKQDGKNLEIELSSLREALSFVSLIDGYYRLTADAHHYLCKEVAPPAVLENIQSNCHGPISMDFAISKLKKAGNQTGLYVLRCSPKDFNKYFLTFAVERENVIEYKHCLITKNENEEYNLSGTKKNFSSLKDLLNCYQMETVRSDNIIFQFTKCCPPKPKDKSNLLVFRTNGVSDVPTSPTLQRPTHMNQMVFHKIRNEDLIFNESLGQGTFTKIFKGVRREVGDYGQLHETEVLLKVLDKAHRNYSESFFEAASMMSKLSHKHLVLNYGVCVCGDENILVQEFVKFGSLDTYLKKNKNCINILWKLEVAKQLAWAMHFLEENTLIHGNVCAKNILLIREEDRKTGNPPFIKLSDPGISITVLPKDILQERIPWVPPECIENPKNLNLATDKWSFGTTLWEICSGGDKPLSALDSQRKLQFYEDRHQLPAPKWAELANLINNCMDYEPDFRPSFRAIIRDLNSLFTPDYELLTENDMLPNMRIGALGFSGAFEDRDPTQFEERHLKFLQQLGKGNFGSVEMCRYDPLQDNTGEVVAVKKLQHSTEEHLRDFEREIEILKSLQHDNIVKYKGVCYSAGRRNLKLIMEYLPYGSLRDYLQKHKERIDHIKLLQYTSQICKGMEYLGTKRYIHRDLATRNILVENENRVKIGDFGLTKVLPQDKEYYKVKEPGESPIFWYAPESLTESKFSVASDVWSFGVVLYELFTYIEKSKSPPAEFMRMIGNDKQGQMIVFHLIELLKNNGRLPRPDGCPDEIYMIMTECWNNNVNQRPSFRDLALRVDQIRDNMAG
Procedure: as §1
The reaction mixture (15 μL total volume) contains the following compounds: 15 nM JAK2 or JAK3, 150 nM kinase tracer 236 (Life Technologies, #PV5592) for JAK2 or 3 nM for JAK3 and 6 nM LanthaScreen® anti-GST antibody coupled to a europium chelate (Life Technologies, #PV5594) for both enzymes.
as §2, §3

[3] = system: MV4-11 cell line; experiment: Antiproliferative activity (ATPLite cell viability), MV4-11; type: cell-based; details: Homo sapiens, MV4-11 (acute myeloid leukemia, FLT3-ITD), 72 h incubation, read-out: Cytotoxicity (EC50) on MV411 cell line
Procedure: (§4) The characteristics of the cell lines used are as follows (Table 2):
(§5) MV4-11 and MOLM-13 cell lines are cultured in the culture medium specified in Table 2 above and according to the supplier's recommendations. The tests are carried out in 96-well plates. The cells are divided in two at D0. At D1, they are seeded and treated with the compounds at various concentrations and incubated for 72 h at 37° C. and 5% CO2. The dilution of the compounds from stock solutions in DMSO (Sigma, #D8418) was made semi-logarithmically for a final concentration in the culture medium of 0.1%. At day 4, cell viability is evaluated by assaying the ATP released by the living cells using the ATPLite® kit (Perkin Elmer, #6016947). The EC50 values (concentration of the compound necessary to obtain 50% of the maximum effect) are calculated using curve-fitting software.

[4] = system: MOLM-13 cell line; experiment: Antiproliferative activity (ATPLite cell viability), MOLM-13; type: cell-based; details: Homo sapiens, MOLM-13 (acute myeloid leukemia, FLT3-ITD), 72 h incubation, read-out: Cytotoxicity (EC50) on MOLM13 cell line
Procedure: as §4, §5

Compound | IC50 [1] [nM] | IC50 [2] [nM] | EC50 [3] [nM] | EC50 [4] [nM]
CN1CCN(c2ccc3cc2OCCOCCOc2ccc4c(c2)-c2nc(ncc2CC4)N3)CC1 [Compound 3] | 0.14 | 17.5 | 2.8 | 5.6
c1cc(N2CCNCC2)c2cc1Nc1ncc3c(n1)-c1cc(ccc1CC3)OCCOCCO2 [Compound 5] | 1.3 | 13 | 7.2 | 1.8
c1cc(N2CCC(N3CCOCC3)C2)c2cc1Nc1ncc3c(n1)-c1cc(ccc1CC3)OCCOCCO2 (stereo not drawn) [Compound 7] | 6.4 | 40 | 40 | 34
c1cc(N2CCC(N3CCCCC3)CC2)c2cc1Nc1ncc3c(n1)-c1cc(ccc1CC3)OCCOCCO2 [Compound 10] | 1.3 | 7.7 | 6.5 | 6
c1cc(OCCN2CCCC2)c2cc1Nc1ncc3c(n1)-c1cc(ccc1CC3)OCCOCCO2 [Compound 14] | 2 | 34 | 9.2 | 4.5
OC1CCN(c2ccc3cc2OCCOCCOc2ccc4c(c2)-c2nc(ncc2CC4)N3)CC1 [Compound 19] | 2.4 | 20 | 12 | 13.4
CN1CC=C(c2ccc3cc2OCCOCCOc2ccc4c(c2)-c2nc(ncc2CC4)N3)CC1 [Compound 23] | 1.7 | 130 | 20 | 6.6
c1cc(N2CC3CNCC3C2)c2cc1Nc1ncc3c(n1)-c1cc(ccc1CC3)OCCOCCO2 (stereo not drawn) [Compound 29] | 0.79 | 11.5 | 7.6 | 15
CN(C)C1CCN(c2ccc3cc2OCCOCCOc2ccc4c(c2)-c2nc(ncc2CC4)N3)C1 (stereo not drawn) [Compound 30] | 1 | 10 | 12 | 15
CN1CCN(c2ccc3cc2OCCOCCOc2ccc4c(c2)-c2nc(ncc2CC4)N3)CC1(C)C [Compound 40] | 0.51 | 7.25 | 21 | 20
c1cc(N2CC3CCC(C2)N3)c2cc1Nc1ncc3c(n1)-c1cc(ccc1CC3)OCCOCCO2 [Compound 42] | 1.1 | 6.7 | 3 | 7
c1cc(N2C[C@H]3C[C@@H]2CN3)c2cc1Nc1ncc3c(n1)-c1cc(ccc1CC3)OCCOCCO2 [Compound 44] | 1.5 | 33.5 | 10 | 8.8
